Among the data in US9682977B2, “Bicyclic heteroaryl indole analogues useful as ROR gamma modulators” (Glenmark Pharmaceuticals S.A., priority 2013, dated 2017) are inhibition and IC50 values, retold here.

For the test, the target named is T1, GST-tagged ROR gamma ligand binding domain (LBD) (Homo sapiens, UniProt P51449).
T1 construct: purchased Invitrogen
T1 sequence (P51449 269-508 limits assumed): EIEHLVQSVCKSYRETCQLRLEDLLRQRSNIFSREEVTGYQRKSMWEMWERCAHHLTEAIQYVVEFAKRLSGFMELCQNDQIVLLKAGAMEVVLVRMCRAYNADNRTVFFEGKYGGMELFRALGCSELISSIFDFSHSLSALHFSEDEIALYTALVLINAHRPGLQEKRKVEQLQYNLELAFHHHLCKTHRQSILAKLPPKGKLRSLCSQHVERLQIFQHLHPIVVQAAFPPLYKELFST
The test can be described thus: TR-FRET assay for ROR gamma (Lantha Screen, co-activator peptide recruitment). The test is classed as biochemical. Particulars: for inhibition at 1 µM: read-out: % inhibition at 1 μM; for inhibition at 10 µM: read-out: % inhibition at 10 μM.

Setting [1] is: compound concentration 1 μM, TR-FRET ratio 520/495, percent of control.
Where [2] appears, read: compound concentration 10 μM, TR-FRET ratio 520/495, percent of control.
Where [3] appears, read: class symbols, from dose response curve, read-out: IC50 value.

Like-named read-outs stand apart in the source and are kept apart here.

Usually inhibition stands for the percentage by which the read-out fell short of the control. As for `O=C(O)c1ccc(-n2nc(C(=O)c3ccccc3)c3ccccc32)c(F)c1` [Example 30, 4-(3-Benzoyl-1H-indazol-1-yl)-3-fluorobenzoic acid], under setting [1], the inhibition at 1 µM was found to be 47.1%. The inhibition at 10 µM under setting [2] came to 88.9%.

In the case of `CCCOC(=O)c1ccc(-n2cc(C(=O)c3c(Cl)cccc3Cl)c3ccccc32)c(F)c1` [Example 40, Propyl 4-{3-[(2,6-dichlorophenyl)carbonyl]-1H-indol-1-yl}-3-fluorobenzoate], the inhibition at 1 µM came to 9.11%.

What is called IC50 is the concentration that inhibits the measured activity by half. In the case of `O=C(O)c1ccc(-n2nc(C(=O)c3c(Cl)cccc3Cl)c3cccnc32)cc1` [Example 36, 4-{3-[(2,6-Dichlorophenyl)carbonyl]-1H-pyrazolo[3,4-b]pyridin-1-yl}benzoic acid], under setting [3], the 50% inhibitory concentration (IC50) was less than 0.05 µM. In addition, under setting [1], the inhibition at 1 µM worked out at 95.7%. Further, under setting [2], the inhibition at 10 µM is 96.4%.

Regarding `CCCOC(=O)c1ccc(-n2nc(Oc3c(Cl)cccc3C(F)(F)F)c3ccccc32)c(F)c1` [Example 46, Propyl 4-{3-[2-chloro-6-(trifluoromethyl)phenoxy]-1H-indazol-1-yl}-3-fluorobenzoate], the inhibition at 1 µM under setting [1] turned out to be 10.9%. Also, the inhibition at 10 µM under setting [2] was determined as 28.5%.

Take `Cc1cccc(Oc2nn(-c3ccc(C(=O)O)cc3)c3ccccc23)c1` [Example 3, 4-[3-(3-Methylphenoxy)-1H-indazol-1-yl]benzoic acid]: the inhibition at 1 µM under setting [1] is 23.4%. Also, the inhibition at 10 µM under setting [2] worked out at 34.6%.

On to `O=C(O)c1ccc(-n2nc(C(=O)c3ccccc3)c3ccccc32)cc1` [Example 28, 4-[3-(Phenylcarbonyl)-1H-indazol-1-yl]benzoic acid], for which the inhibition at 1 µM under setting [1] turned out to be 30.2%. Under setting [2], the inhibition at 10 µM was 62.9%.

As for `O=C(O)c1ccc(-n2nc(Oc3c(Cl)cccc3C3CC3)c3ccccc32)c(F)c1` [Example 13, 4-[3-(2-Chloro-6-cyclopropylphenoxy)-1H-indazol-1-yl]-3-fluorobenzoic acid], under setting [3], the IC50 was less than 0.05 µM. Moreover, the inhibition at 1 µM under setting [1] worked out at 91.7%. Besides, under setting [2], the inhibition at 10 µM amounted to 91.7%.

As to `O=C(O)c1ccc(-n2cc(C(=O)c3c(Cl)cccc3Cl)c3cccnc32)c(F)c1` [Example 27, 4-[3-(2,6-Dichlorobenzoyl)-1H-pyrrolo[2,3-b]pyridin-1-yl]-3-fluorobenzoic acid], the half-inhibitory concentration (IC50) under setting [3] was less than 0.05 µM. In addition, the inhibition at 1 µM under setting [1] is 95.6%. Besides, the inhibition at 10 µM under setting [2] turned out to be 97.9%.

Take `O=C(O)c1ccc(-n2nc(C(=O)c3c(Cl)cccc3C3CC3)c3cccnc32)cc1` [Example 37, 4-{3-[(2-Chloro-6-cyclopropylphenyl)carbonyl]-1H-pyrazolo[3,4-b]pyridin-1-yl}benzoic acid]: under setting [3], the IC50 was less than 0.05 µM. The inhibition at 1 µM under setting [1] came to 97.6%. In addition, under setting [2], the inhibition at 10 µM was 94.6%.

Turning to `CCCCOC(=O)c1ccc(-n2cc(C(=O)c3c(Cl)cccc3Cl)c3ccccc32)c(F)c1` [Example 41, Butyl 4-{3-[(2,6-dichlorophenyl)carbonyl]-1H-indol-1-yl}-3-fluorobenzoate], the inhibition at 1 µM was 5.13%.

As to `O=C(O)c1ccc(-n2cc(C(=O)c3c(Cl)cccc3Cl)c3ccccc32)cc1` [Example 16, 4-{3-[(2,6-Dichlorophenyl)carbonyl]-1H-indol-1-yl}benzoic acid], the IC50 is less than 0.05 µM, the inhibition at 1 µM amounted to 96% and the inhibition at 10 µM stood at 97.2%.

For `CCOC(=O)c1ccc(-n2cc(C(=O)c3c(Cl)cccc3Cl)c3cccc(F)c32)c(F)c1` [Example 42, Ethyl 4-[3-(2,6-dichloro-benzoyl)-7-fluoro-1H-indol-1-yl]-3-fluorobenzoate], the inhibition at 1 µM turned out to be 0.61%.

For the compound `O=C(O)c1ccc(-n2nc(Oc3c(Cl)cccc3C3CC3)c3cccc(F)c32)c(F)c1` [Example 14, 4-[3-(2-Chloro-6-cyclopropylphenoxy)-7-fluoro-1H-indazol-1-yl]-3-fluorobenzoic acid], the half-maximal inhibitory concentration (IC50) under setting [3] was less than 0.05 µM. Also, under setting [1], the inhibition at 1 µM stood at 91.4%. Moreover, the inhibition at 10 µM under setting [2] came out at 91.2%.

Consider `CCCOC(=O)c1ccc(-n2cc(C(=O)c3c(Cl)cccc3Cl)c3cccc(F)c32)c(F)c1` [Example 43, Propyl 4-[3-(2,6-dichloro-benzoyl)-7-fluoro-1H-indol-1-yl]-3-fluorobenzoate], for which the inhibition at 1 µM was 6.99% and the inhibition at 10 µM came to 1.02%.

`O=C(O)c1ccc(-n2cc(C(=O)c3c(Cl)cccc3Cl)c3cc(F)ccc32)c(F)c1` [Example 23, 4-[3-(2,6-Dichlorobenzoyl)-5-fluoro-1H-indol-1-yl]-3-fluorobenzoic acid]: under setting [3], the IC50 was less than 0.05 µM. The inhibition at 1 µM under setting [1] is 98.2%. Besides, the inhibition at 10 µM under setting [2] is 96.7%.

With `O=C(O)c1ccc(-n2nc(Oc3c(Cl)cccc3Cl)c3ccccc32)c(F)c1` [Example 6, 4-[3-(2,6-Dichlorophenoxy)-1H-indazol-1-yl]-3-fluorobenzoic acid], the IC50 under setting [3] was less than 0.05 µM. Moreover, under setting [1], the inhibition at 1 µM worked out at 99.2%. For the same compound, the inhibition at 10 µM under setting [2] was determined as 99.6%.

`CCCCOC(=O)c1ccc(-n2nc(Oc3c(Cl)cccc3C(F)(F)F)c3ccccc32)c(F)c1` [Example 47, Butyl 4-{3-[2-chloro-6-(trifluoromethyl)phenoxy]-1H-indazol-1-yl}-3-fluorobenzoate]: the inhibition at 1 µM under setting [1] came out at 52%. For the same compound, the inhibition at 10 µM under setting [2] stood at 91.9%.

With `O=C(O)c1ccc(-n2nc(Oc3ccccc3)c3ccccc32)cc1` [Example 4, 4-(3-Phenoxy-1H-indazol-1-yl)benzoic acid], the inhibition at 1 µM under setting [1] turned out to be 31.2%. In addition, the inhibition at 10 µM under setting [2] came to 37%.

On to `O=C(O)c1ccc(-n2cc(C(=O)c3ccccc3Cl)c3ccccc32)c(F)c1` [Example 20, 4-{3-[(2-Chlorophenyl)carbonyl]-1H-indol-1-yl}-3-fluorobenzoic acid], for which, under setting [3], the IC50 is less than 0.05 µM. For the same compound, the inhibition at 1 µM under setting [1] amounted to 95.7%. Also, the inhibition at 10 µM under setting [2] worked out at 100%.

As for `CN(C)C(=O)c1ccc2c(C(=O)c3c(Cl)cccc3Cl)cn(-c3ccc(C(=O)O)cc3F)c2c1` [Example 26, 4-[3-(2,6-Dichloro-benzoyl)-6-dimethylcarbamoyl-indol-1-yl]-3-fluoro-benzoic acid], the inhibition at 1 µM was 31.3% and the inhibition at 10 µM amounted to 33.7%.

For the compound `O=C(O)c1ccc(-n2cc(C(=O)c3c(F)cccc3F)c3ccccc32)cc1` [Example 18, 4-{3-[(2,6-Difluorophenyl)carbonyl]-1H-indol-1-yl}benzoic acid], the IC50 fell in the range of 0.05 to 0.1 µM, the inhibition at 1 µM is 81% and the inhibition at 10 µM is 94.5%.

For `CCOC(=O)c1ccc(-n2nc(Oc3c(Cl)cccc3C(F)(F)F)c3ccccc32)c(F)c1` [Example 45, Ethyl 4-{3-[2-chloro-6-(trifluoromethyl)phenoxy]-1H-indazol-1-yl}-3-fluorobenzoate], the IC50 under setting [3] was 0.05 to 0.1 µM. Further, the inhibition at 1 µM under setting [1] was found to be 97.9%. In addition, the inhibition at 10 µM under setting [2] stood at 93.7%.

For the compound `O=C(O)c1ccc(-n2nc(Oc3c(Cl)cccc3C(F)F)c3cccc(F)c32)c(F)c1` [Example 12, 4-{3-[2-Chloro-6-(difluoromethyl)phenoxy]-7-fluoro-1H-indazol-1-yl}-3-fluorobenzoic acid], the IC50 under setting [3] is less than 0.05 µM. Under setting [1], the inhibition at 1 µM was 94.4%. Also, the inhibition at 10 µM under setting [2] came out at 95.1%.
